{"source": "patent US8802656B2", "about": "“Purified phospholipid-non-steroidal anti-inflammatory drug associated compositions and methods for preparing and using same” (priority 2004, dated 2014)", "system": "rats injected with CFA in a hind paw", "assay": "Pain pressure threshold (modified Randall-Selitto) in rats with CFA-inflamed hind paw, acute oral dosing", "type": "in vivo, rat", "conditions": "for pain pressure threshold: ibuprofen 20 or 50 mg/kg, indomethacin 1 mg/kg intragastric, two hours after dosing, CFA 4 days before, FIG. 4", "description": "In the second in vivo experiment, we compared the analgesic activity of the acetone preparation of PC-ibuprofen to that of ibuprofen alone (at doses of 20 and 50 mg/kg) in rats and compared the response to a sub-threshod dose of indomethacin (1 mg/kg). The measurements were made on rats, in which 0.1 mL of Complete Freund's Adjuvant (CFA) was subcutaneously injected into the dorsal surface of the left hindpaw, 4 days previously to increase the affected paw's sensitivity to pressure. […] Myeloperoxidase Activity In this experiment, we evaluated the analgesic activity of the test material using a rodent model system previously described in detail. This was accomplished by initially inducing inflammation of a hind paw of male Sprague Dawley rats by subcutaneously injecting 0.1 mL of Complete Freund's Adjuvant (Sigma Chemical Co. St. Louis, Mo.) into the doral surface of the left hind paw. […] For comparison, we also intragastrically administered a group of rats with a sub-threshold dose (1 mg/kg) of the NSAID, indomethacin, that was suspended in 1% methyl cellulose.", "note": "Entries after “also recorded” stand apart in the source; their conditions may differ.", "data": [{"smiles": "CC(C)Cc1ccc(C(C)C(=O)O)cc1", "note": "(stereo not shown) [ibuprofen]", "values": [{"measurement": "pain pressure threshold", "setting": "listed as generic ibuprofen", "result": "dose-dependent increase in pain pressure threshold"}, {"measurement": "pain pressure threshold", "setting": "listed as unmodified ibuprofen", "result": "apparent dose-dependent increase in pain pressure threshold"}]}, {"smiles": "COc1ccc2c(c1)c(CC(=O)O)c(C)n2C(=O)c1ccc(Cl)cc1", "note": "[indomethacin]", "values": [{"measurement": "pain pressure threshold", "result": "no effect; also recorded: non-significant response"}]}, {"smiles": "CC(=O)Oc1ccccc1C(=O)O", "note": "[ASA, Aspirin]", "values": [{"measurement": "pain threshold", "setting": "CFA induced inflammation, Randall Siletto procedure, ASA formulations, FIG. 13", "result": "performed similarly"}]}]}
